Experimental data reported in patent publication US4888287A, “Rapid differentiation of fungi from bacteria using polyene antibiotics” (Eastman Kodak Company, priority 1986, dated 1989).

Legend:
[1] = tested on: E. coli; assay: Inhibition of RIND IX reduction by E. coli (gram-negative) in solution (Example 1, Table II); type: cell-based, Escherichia coli (ATCC 25922)
Procedure: (§1) gram-negative microorganism Escherichia coli (ATCC 25922), gram-positive microorganism Staphylococcus aureus (ATCC 25923), and Candida albicans yeast cells (ATCC 14053), brain heart infusion broth (BHI) and Sabaroud's dextrose broth (SAB) from Difco Laboratories (Detroit, Michigan, U.S.A.), and Aspergillus flavus (ATCC 20047), a mold from American Type Culture Collection (Rockville, Maryland, U.S.A.).
(§2) E. coli and S. aureus were grown overnight in BHI broth at 37° C. C. albicans and A. flavus were grown overnight at 25° C. in SAB broth with agitation. […]
(§3) Test solutions were prepared by adding in order: 1.2 ml of HEPES buffer, 50 μl glucose solution, 1.5 ml of RIND IX dispersion, 100 μl of antibiotic solution, 100 μl of cell suspension and 25 μl of ETA solution. […] Optical density readings (OD) were measured at 635 nm at 0 minutes and after incubation at 37° C. for 30 minutes for test and Control solutions, and the change in density (ΔOD) was determined. Table II below lists the results, expressed as corrected percent inhibition of the reduction of the RIND compound. The corrected percent inhibition is calculated by dividing the difference between the ΔOD obtained from the Control without antibiotic and the ΔOD of the test solution, by ΔOD of the Control without antibiotic. All readings were corrected by subtracting readings of the appropriate background control. […]

[2] = tested on: C. albicans; assay: Inhibition of RIND IX reduction by C. albicans (yeast) in solution (Example 1, Table II); type: cell-based, Candida albicans (ATCC 14053)
Procedure: E. coli and S. aureus were grown overnight in BHI broth at 37° C. C. albicans and A. flavus were grown overnight at 25° C. in SAB broth with agitation. The cells were harvested by centrifugation, washed and resuspended in 0.05 molar N-2-hydroxyethylpiperazine-N'-2-ethanesulfonic acid (HEPES) buffer (pH 7.8).
Dispersions containing RIND compounds were prepared by dissolving, for example, RIND VII from Table I above in N,N-dimethylformamide (DMF) at 16 mg compound per ml of solvent. An aliquot (250 μl) of the resulting solution was added to 500 μl of TRITON X-100 surfactant. This mixture was then added dropwise with stirring to 25 ml of 0.05 molar HEPES buffer.
The following materials were used in this example: stock solutions of RIND IX compound dispersion prepared as described above, glucose (10% in water), trimethyl-1,4-benzoquinone ETA (1.5 mg/ml methanol), and the antibiotics (25 mg/ml in dimethyl sulfoxide, except that filipin was 12.5 mg/ml of solvent). Bacteria and yeast were grown as described above. The approximate final cell concentrations in the assay mixture were 4.2×10^8 cells/ml of E. coli, 7.1×10^8 cells/ml of S. aureus, and 7×10^5 of C. albicans.
Test solutions were prepared by adding in order: 1.2 ml of HEPES buffer, 50 μl glucose solution, 1.5 ml of RIND IX dispersion, 100 μl of antibiotic solution, 100 μl of cell suspension and 25 μl of ETA solution. Cell control solutions contained all reagents except antibiotics. Background controls consisted of both buffer and solution controls. The buffer control contained all reagents except antibiotics and cells. The solution control contained all reagents except cells. Optical density readings (OD) were measured at 635 nm at 0 minutes and after incubation at 37° C. for 30 minutes for test and Control solutions, and the change in density (ΔOD) was determined. […] The corrected percent inhibition is calculated by dividing the difference between the ΔOD obtained from the Control without antibiotic and the ΔOD of the test solution, by ΔOD of the Control without antibiotic. All readings were corrected by subtracting readings of the appropriate background control.
Solutions containing 2.9 ml HEPES, 50 μl of the antibiotic solution, and 100 μl cell solution were incubated at 37° C. for 30 minutes, centrifuged for 10 minutes and decanted. The resulting pellet was then treated with 1.4 ml HEPES, 50 μl glucose solution, 1.5 ml RIND IX dispersion and 25 μl ETA solution, mixed well and the optical densities recorded as described above in Method 1. The corrected percent inhibition data was calculated as described in Method 1 above.

[3] = tested on: S. aureus; assay: Inhibition of RIND IX reduction by S. aureus (gram-positive) in solution (Example 1, Table II); type: cell-based, Staphylococcus aureus (ATCC 25923); conditions: Method 1, 635 nm, 37° C., 30 min
Procedure: as §1, §2, §3

[4] = Method 1, 635 nm, 37° C., 30 min
[5] = Method 2, preincubation for 1 hour, 635 nm

| Molecule | Corrected % Inhibition [1, 4] | Corrected % Inhibition [2, 4] | Corrected % Inhibition [3] | Corrected % Inhibition [2, 5] | Corrected % Inhibition [1, 5] |
| --- | --- | --- | --- | --- | --- |
| C[C@@H]1[C@H](O)[C@@H](C)/C=C/C=C/C=C/C=C/C=C/C=C/C=C/[C@H](O[C@@H]2O[C@H](C)[C@@H](O)[C@H](N)[C@@H]2O)C[C@@H]2O[C@](O)(C[C@@H](O)C[C@@H](O)[C@H](O)CC[C@@H](O)C[C@@H](O)CC(=O)O[C@H]1C)C[C@H](O)[C@H]2C(=O)O [Amphotericin B, amphotericin B] | 15.1% | – | – | – | – |
| C[C@@H]1C/C=C/C=C/C=C/C=C/[C@H](O[C@@H]2O[C@H](C)[C@@H](O)[C@H](N)[C@@H]2O)C[C@@H]2O[C@](O)(C[C@@H](O)C[C@H]3O[C@@H]3/C=C/C(=O)O1)C[C@H](O)[C@H]2C(=O)O [Natamycin, natamycin] | – | 77.9% | 0.3% | – | – |
| C[C@@H]1[C@H](O)[C@@H](C)/C=C/C=C/CC/C=C/C=C/C=C/C=C/C(O[C@H]2O[C@H](C)[C@@H](O)[C@H](N)[C@@H]2O)CC2O[C@](O)(CC(O)C(O)CCC(O)CC(O)CC(O)CC(=O)O[C@H]1C)CC(O)C2C(=O)O (stereo partly shown) [Nystatin, nystatin] | – | 76.2% | 9.8% | – | – |
| candicidin | – | – | – | 62.8% | 12.5% |
